According to PMC6522510 (Nature Communications, 2019):
Like-named read-outs stand apart in the source and are kept apart here.

Columns and labels:
Set-up in all cases: species or system AML cell lines (8); Primary HTS, single concentration about 10 uM, Cell Titer Glo viability; log10 luminescence, per cent inhibition relative to cycloheximide control
Settings in all cases: 72 h, inhibitor
[1] = test system: M07e
[2] = test system: CHRF288-11
[3] = test system: MV4-11
[4] = test system: CMK
[5] = test system: MOLM-13
[6] = test system: ML-2
[7] = test system: CMS
[8] = test system: U937
[9] = relative to cycloheximide control, log10 luminescence

SMILES	M07e %inh [1, 9] [%]	CHRF288-11 %inh [2, 9] [%]	MV4-11 %inh [3, 9] [%]	CMK %inh [4, 9] [%]	MOLM-13 %inh [5, 9] [%]	ML-2 %inh [6, 9] [%]	CMS %inh [7, 9] [%]	U937 %inh [8, 9] [%]	M07e %inh ([1]; 10 µM) [%]	CHRF288-11 %inh ([2]; 10 µM) [%]	MV4-11 %inh ([3]; 10 µM) [%]	CMK %inh ([4]; 10 µM) [%]	MOLM-13 %inh ([5]; 10 µM) [%]	ML-2 %inh ([6]; 10 µM) [%]	CMS %inh ([7]; 10 µM) [%]	U937 %inh ([8]; 10 µM) [%]
Fc1ccc(-c2nn3ccccc3c2-c2ccncc2)cc1 [SJ000573260-1, U11781/145/5]	0.2861	-2.859	4.558	8.765	0.1728	-1.762	-2.539	4.651	–	–	–	–	–	–	–	–
CCn1c(-c2nonc2N)nc2c(N3CCCC3)nccc21 [SJ000573261-1, DW100508-128A1]	5.656	2.981	6.029	3.861	1.048	3.187	5.321	-1.967	–	–	–	–	–	–	–	–
Fc1cccc(COc2ccc(Nc3ncncc3C#Cc3ccccc3)cc2Cl)c1 [SJ000573262-1, U15872/50/1]	-0.005299	-1.921	1.812	-0.522	-0.1156	1.8	-2.059	1.725	–	–	–	–	–	–	–	–
COc1cc(/C=N/Nc2ncnc3[nH]ncc23)ccc1O [SJ000573263-1, U15117/8/1]	4.954	2.923	32.98	1.246	34.62	0.3724	3.056	2.504	–	–	–	–	–	–	–	–
CCN1CCC(CC(=O)Nc2n[nH]c3nc(-c4cccs4)c(Br)cc23)CC1 [SJ000573264-1, AG201339-025C2]	7.209	10.8	29.41	18.01	8.584	-1.837	7.013	1.142	–	–	–	–	–	–	–	–
CCOc1ccc2c(-c3ccnc(Nc4cccc(C(F)(F)F)c4)n3)cnn2n1 [SJ000573265-1, U17838/110/3]	6.84	2.566	2.829	-2.107	1.961	2.429	0.8077	-3.226	–	–	–	–	–	–	–	–
COC(=O)Nc1nc2cc(Oc3ccc(NC(=O)Nc4cccc(Br)c4)cc3)ccc2[nH]1 [SJ000573266-1, T261/62/3]	12.78	12.69	65.99	40.21	76.65	3.598	26.73	79.03	–	–	–	–	–	–	–	–
COc1cc(/C=N/Nc2ncnc3c2cnn3C(C)C)ccc1O [SJ000573267-1, T237/25/6]	–	–	–	–	–	–	–	–	6.424	29.61	40.62	41.95	52.9	8.895	9.426	8.888
O=C1NC(=O)C(N2CCc3ccccc32)=C1c1ccc(Cl)cc1 [SJ000573268-1, DH97836-102A1]	-0.7324	52.52	95.01	4.78	0.0382	-0.2823	-3.009	0.6171	–	–	–	–	–	–	–	–
Cc1ccc(O)cc1Nc1ccnc2cc(-c3ccccn3)ccc12 [SJ000573269-1, R1902/28/3 | HC 206053 | GW440139B | | RTP SMTECH | SID124349934 | TCMDC-138201 | GW440139B |]	10.95	60.6	3.761	50.01	20.29	1.439	4.641	14.95	–	–	–	–	–	–	–	–
CCOc1nccc2c1nc(-c1nonc1N)n2CC [SJ000573270-1, DW100508-082A1]	-0.5841	53.12	-0.5042	45.39	-1.635	28.26	-3.21	-1.837	–	–	–	–	–	–	–	–
O=C(Nc1n[nH]c2nc(-c3ccco3)ccc12)C1CC1 [SJ000573271-1, VB100064-193A1]	-1.707	7.062	-0.2919	-3.194	1.202	-0.1888	0.8699	-4.198	–	–	–	–	–	–	–	–
Cc1ccc(C(=O)NC2CC2)cc1-c1ccc2[nH]ncc2c1 [SJ000573272-1, R8615/48/1]	0.6909	1.821	1.257	0.7696	-2.369	0.7274	0.2308	1.222	–	–	–	–	–	–	–	–
CCCN1CCC=C(c2ccc(Nc3nc(Nc4ccccc4C(N)=O)c4cc[nH]c4n3)c(C)c2)C1 [SJ000573273-1, U22972/6/1]	19.9	54.2	28.66	24.28	49.41	20.08	2.734	14.36	–	–	–	–	–	–	–	–
COc1cc(Nc2nccc(-c3cnn4ncccc34)n2)cc(OC)c1 [SJ000573274-1, U16419/146/1]	113.9	52.5	76.66	84.54	76.09	59.09	100.2	80.29	–	–	–	–	–	–	–	–
CC(C)c1ccc(-c2cc(-c3c[nH]nc3-c3ccccn3)ccn2)cc1 [SJ000573275-1, FVLN/241/7/1]	2.317	9.433	4.536	0.9087	2.021	1.414	-0.3112	0.007743	–	–	–	–	–	–	–	–
Fc1ccc(-c2cc(-c3c[nH]nc3-c3ccccn3)ccn2)cc1 [SJ000573276-1, FCJB/213/107/1]	-1.13	-1.896	1.718	15.4	10.74	4.336	-1.917	16.91	–	–	–	–	–	–	–	–
COc1ccc(-c2cc(-c3c[nH]nc3-c3ccccn3)ccn2)cc1 [SJ000573277-1, FFJG/208/167/1]	1.202	12.63	4.2	4.937	2.31	-0.1507	0.9761	7.208	–	–	–	–	–	–	–	–
Nc1nc(-c2ccccn2)c(-c2ccc3ncccc3n2)s1 [SJ000573278-1, FAMP/256/57/4]	0.9531	2.264	-2.996	2.499	2.605	2.846	0.3275	-0.9094	–	–	–	–	–	–	–	–
c1ccc(-c2n[nH]cc2-c2ccnc(-c3ccc(OCCN4CCOCC4)cc3)c2)nc1 [SJ000573279-1, FVLN/241/86/2]	-4.621	1.18	1.132	0.1656	4.641	-0.6736	-2.932	-1.579	–	–	–	–	–	–	–	–
CN(c1ccc(NC(=O)Nc2ccc(OC(F)(F)F)cc2)cc1)c1ccnc(Nc2cccc(S(N)(=O)=O)c2)n1 [SJ000573281-1, U17983/20/3]	21.34	54	82.54	57.59	77.33	11.59	4.771	20.62	–	–	–	–	–	–	–	–
N#Cc1c(NC(=O)c2ccc(F)cc2)sc2c1CCCC2 [SJ000573282-1, R15619/128/1]	6.55	20.67	-0.9119	5.634	3.13	2.372	0.2829	2.356	–	–	–	–	–	–	–	–
Cc1c2ccc(N(C)c3ccnc(Nc4cccc(S(N)(=O)=O)c4)n3)cc2nn1C [SJ000573283-1, U17574/40/1]	4.447	6.19	13.33	33.97	26.58	3.984	2.522	17.32	–	–	–	–	–	–	–	–
